BigSolDB 2.1

c1ccc2oc(CSCc3nc4ccccc4o3)nc2c1
solubility (mole fraction) (in chlorobenzene, 274.85 K): 0.00424 | solubility (mole fraction) (in chlorobenzene, 278.15 K): 0.00514 | solubility (mole fraction) (in chlorobenzene, 283.15 K): 0.00684 | solubility (mole fraction) (in chlorobenzene, 287.95 K): 0.00889 | solubility (mole fraction) (in chlorobenzene, 292.95 K): 0.0119 | solubility (mole fraction) (in chlorobenzene, 298.35 K): 0.0157 | solubility (mole fraction) (in chlorobenzene, 303.25 K): 0.0205 | solubility (mole fraction) (in chlorobenzene, 308.15 K): 0.0262 | solubility (mole fraction) (in chlorobenzene, 313.25 K): 0.0341 | solubility (mole fraction) (in chlorobenzene, 318.05 K): 0.0427 | solubility (mole fraction) (in ethanol, 274.15 K): 0.00741 | solubility (mole fraction) (in ethanol, 278.15 K): 0.00978 | solubility (mole fraction) (in ethanol, 283.15 K): 0.014 | solubility (mole fraction) (in ethanol, 288.35 K): 0.02 | solubility (mole fraction) (in ethanol, 291.15 K): 0.0236 | solubility (mole fraction) (in ethanol, 293.15 K): 0.0279 | solubility (mole fraction) (in ethanol, 295.55 K): 0.0318 | solubility (mole fraction) (in ethanol, 298.15 K): 0.0377 | solubility (mole fraction) (in ethanol, 300.25 K): 0.0435 | solubility (mole fraction) (in ethanol, 302.95 K): 0.052 | solubility (mole fraction) (in ethanol, 305.15 K): 0.0578 | solubility (mole fraction) (in ethanol, 308.15 K): 0.0704 | solubility (mole fraction) (in isopropanol, 278.15 K): 0.00231 | solubility (mole fraction) (in isopropanol, 283.15 K): 0.00333 | solubility (mole fraction) (in isopropanol, 289.15 K): 0.00523 | solubility (mole fraction) (in isopropanol, 293.15 K): 0.00703 | solubility (mole fraction) (in isopropanol, 298.15 K): 0.0105 | solubility (mole fraction) (in isopropanol, 303.15 K): 0.014 | solubility (mole fraction) (in isopropanol, 308.15 K): 0.0194 | solubility (mole fraction) (in isopropanol, 313.15 K): 0.0268 | solubility (mole fraction) (in isopropanol, 318.15 K): 0.0372 | solubility (mole fraction) (in isopropanol, 323.15 K): 0.051 | solubility (mole fraction) (in n-butanol, 278.35 K): 0.00349 | solubility (mole fraction) (in n-butanol, 283.15 K): 0.00494 | solubility (mole fraction) (in n-butanol, 288.15 K): 0.00698 | solubility (mole fraction) (in n-butanol, 293.25 K): 0.00986 | solubility (mole fraction) (in n-butanol, 298.15 K): 0.0142 | solubility (mole fraction) (in n-butanol, 303.25 K): 0.0199 | solubility (mole fraction) (in n-butanol, 308.15 K): 0.0271 | solubility (mole fraction) (in n-butanol, 313.25 K): 0.0372 | solubility (mole fraction) (in n-butanol, 318.15 K): 0.0516 | solubility (mole fraction) (in n-butanol, 323.15 K): 0.0679 | solubility (mole fraction) (in o-xylene, 273.35 K): 0.000297 | solubility (mole fraction) (in o-xylene, 278.15 K): 0.000431 | solubility (mole fraction) (in o-xylene, 283.15 K): 0.00064 | solubility (mole fraction) (in o-xylene, 287.95 K): 0.000899 | solubility (mole fraction) (in o-xylene, 293.05 K): 0.00138 | solubility (mole fraction) (in o-xylene, 298.15 K): 0.00203 | solubility (mole fraction) (in o-xylene, 303.15 K): 0.00305 | solubility (mole fraction) (in o-xylene, 308.35 K): 0.00443 | solubility (mole fraction) (in o-xylene, 313.15 K): 0.00656 | solubility (mole fraction) (in o-xylene, 318.15 K): 0.00904 | solubility (mole fraction) (in toluene, 274.15 K): 0.000608 | solubility (mole fraction) (in toluene, 278.15 K): 0.000971 | solubility (mole fraction) (in toluene, 283.15 K): 0.00176 | solubility (mole fraction) (in toluene, 288.15 K): 0.00306 | solubility (mole fraction) (in toluene, 293.15 K): 0.00522 | solubility (mole fraction) (in toluene, 298.15 K): 0.00861 | solubility (mole fraction) (in toluene, 303.15 K): 0.0139 | solubility (mole fraction) (in toluene, 308.15 K): 0.024 | solubility (mole fraction) (in toluene, 313.25 K): 0.0292 | solubility (mole fraction) (in toluene, 318.15 K): 0.0413
